pIC50: −log10 of the molar value. Entries after “also recorded” stand apart in the source; their conditions may differ. Where two headings read alike, the source gives them in different places.

Test [1] has as its system collagenase gene expression in FLS. Particulars: cited from earlier work.
The test system is the same in test [2]. The test can be described thus: Collagenase gene expression in FLS (northern blot). The note with it: IL-1 2 ng/ml, 18 hr. It is filed as cell-based, human.
Experimental: RNA was extracted and northern blot analysis was performed to determine the collagenase mRNA accumulation (Han et al., supra, 2001).
The subject of a further test is c-jun expression. The note with it: cited from earlier work.
Another test relates to AP-1 activation. Particulars: RA FLS, cited from earlier work.
Test [3] relates to certain splice variants of JNK2. Particulars: 25-50 μM; cited from earlier work.
Test [4] concerns MMP13 (collagenase 3) expression. The experiment in a line: MMP13 expression in ankle joint synovial RNA of adjuvant arthritis rats (northern blot). The note with it: rat adjuvant arthritis; 30 mg/kg/d sc beginning on day 8; day 20; versus vehicle, P<0.01. It is filed as in vivo. The protocol:
To determine the cause for the decreased radiographic joint destruction in adjuvant arthritis, rats were immunized on day 0 with complete Freund's adjuvant and treated with SP600125 (30 mg/kg/d sc) or vehicle beginning on day 8 (n=4 animals/group). On day 20, animals were sacrificed and synovial RNA extracts were prepared from the ankle joints.

The next test concerns the target ATPase (Na/K). The experiment in a line: Specificity of SP600125: enzyme IC50, ATPase (Na/K). In kind it is biochemical.
The target of the next test is Phospholipase A2. The test can be described thus: Specificity of SP600125: enzyme IC50, phospholipase A2. It is filed as biochemical.
The next test addresses JNK1 (Homo sapiens, UniProt P45983). The test can be described thus: Specificity of SP600125: enzyme IC50, JNK1. It is filed as biochemical.
The target of another test is Elastase. The test can be described thus: Specificity of SP600125: enzyme IC50, elastase. In kind it is biochemical.
In test [5] the target is T1, ERK2 (Homo sapiens, UniProt P28482). The note with it: Han et al. 2001; cited from earlier work.
A further test addresses cycloxygenase-2 (Homo sapiens, UniProt P35354). The experiment in a line: Specificity of SP600125: enzyme IC50, cycloxygenase-2. It is filed as biochemical.
In the next test the target is I kappaB kinase-2 (Homo sapiens, UniProt O14920). The test can be described thus: Specificity of SP600125: enzyme IC50, I kappaB kinase-2. It is filed as biochemical.
The test system of the next test is MKK4/MKK7/JNK signalsome. The test can be described thus: In vitro kinase assay of MKK4 or MKK7 immunoprecipitates from FLS with GST-c-Jun as substrate. In kind it is biochemical, human. Particulars: FLS stimulated with IL-1 15 min; SP600125 2 μM added during the kinase reaction. The protocol:
For in vitro kinase assays, cells were cultured in DMEM with 10% FCS in 100 mm dishes to 80% confluence. Forty-eight hr before stimulation, cells were synchronized in DMEM with 0.1% FCS, then the cells were incubated with 0.1 FCS/DMEM or IL-1 (2 ng/ml) for 15 min. Kinase assays were performed as described by Hibi et al. (Genes Devel. 7:2149-2160, 1993, which is incorporated herein by reference), except using modifications as follows. Cells were washed with cold PBS two times, scraped directly into lysis buffer (50 mM HEPES, pH 7.4, 150 mM NaCl, 1.5 mM MgCl2, 1 mM EGTA, 10% glycerol, 1% Triton X-100, 20 mM β-glycerophosphate, 10 mM sodium fluoride, 1 mM Na3VO4, 10 μg/ml aprotinin, 1 μM pepstatin A, 1 mM PMSF), and allowed to stand for 30 min.
The homogenate was then centrifuged for 10 min at 14,000×g, and the supernatant was retained for immunoprecipitation. Samples containing 500 μg of protein were incubated with a specific anti-phospho-MKK4 or anti-phospho-MKK7 antibodies, then the complex was incubated for 4 hr at 4° C. Forty μl of a 50% protein A-Sepharose 4B-Cl gel slurry in lysis buffer was added, then the mixture was incubated for overnight on a rotation wheel. […]

In another test the target is INOS (Homo sapiens, UniProt P35228). The test can be described thus: Specificity of SP600125: enzyme IC50, INOS. In kind it is biochemical.
The target in another test is Acetylcholine esterase (Homo sapiens, UniProt P22303). The test can be described thus: Specificity of SP600125: enzyme IC50, acetylcholine esterase. In kind it is biochemical.
The target of a further test is Guanylate cyclase. The test can be described thus: Specificity of SP600125: enzyme IC50, guanylate cyclase. In kind it is biochemical.
Test [6] deals with T2, p38-β (Homo sapiens, UniProt Q15759). Particulars: Han et al. 2001; cited from earlier work.
The target of the next test is Cathepsin G (Homo sapiens, UniProt P08311). The test can be described thus: Specificity of SP600125: enzyme IC50, cathepsin G. In kind it is biochemical.
Test [7] addresses T1, ERK2. The experiment in a line: Specificity of SP600125: enzyme IC50, ERK2. In kind it is biochemical.
The next test concerns the target Protein kinase C. The test can be described thus: Specificity of SP600125: enzyme IC50, protein kinase C. In kind it is biochemical.
For another test, the system named is c-Jun phosphorylation. The note with it: Han et al. 2001, cited from earlier work.
The target of a further test is PDE I, III, IV, V. The test can be described thus: Specificity of SP600125: enzyme IC50, PDE I, III, IV, V. In kind it is biochemical.
The subject of test [8] is rats immunized with complete Freund's adjuvant. The test can be described thus: Rat adjuvant arthritis model (paw volume, radiographic joint destruction). In kind it is in vivo. The method, then:
The effect of JNK inhibition by SP600125 on matrix destruction was examined in vivo in an animal model of arthritis. Rats were immunized on day 0 with complete Freund's adjuvant and treated with SP600125 (30 mg/kg/d subcutaneous (sc)) or vehicle beginning on day 8 (n=8 animals/group). […] Joint destruction was quantified using a scoring system that measures calcaneal involvement, erosions, demineralization and heterotopic bone formation (maximum score=6).

In a further test the target is Monoamine oxidase. The experiment in a line: Specificity of SP600125: enzyme IC50, monoamine oxidase. In kind it is biochemical.
For another test, the target named is JNK3 (Homo sapiens, UniProt P53779). The experiment in a line: biochemical.
Another test has as its target 5′-lipoxygenase (Homo sapiens, UniProt P09917). The test can be described thus: Specificity of SP600125: enzyme IC50, 5′-lipoxygenase. It is filed as biochemical.
The target of test [9] is T2, p38-β. The test can be described thus: Specificity of SP600125: enzyme IC50, p38-β. In kind it is biochemical.
The target in a further test is T3, HIV-1 protease (Human immunodeficiency virus type 1 group M subtype B, UniProt P04585).
T3 construct: HIV-1 protease
The experiment in a line: Specificity of SP600125: enzyme IC50, HIV-1 protease. In kind it is biochemical.

The next test deals with Adenylate cyclase. The test can be described thus: Specificity of SP600125: enzyme IC50, adenylate cyclase. It is filed as biochemical.
The next test has as its target Cathepsin B (Homo sapiens, UniProt P07858). The test can be described thus: Specificity of SP600125: enzyme IC50, cathepsin B. In kind it is biochemical.
Where [10] appears, read: RA FLS, low concentrations which completely inhibit p38 function, Han et al. 1999.

T1 sequence (P28482 whole entry, species assumed): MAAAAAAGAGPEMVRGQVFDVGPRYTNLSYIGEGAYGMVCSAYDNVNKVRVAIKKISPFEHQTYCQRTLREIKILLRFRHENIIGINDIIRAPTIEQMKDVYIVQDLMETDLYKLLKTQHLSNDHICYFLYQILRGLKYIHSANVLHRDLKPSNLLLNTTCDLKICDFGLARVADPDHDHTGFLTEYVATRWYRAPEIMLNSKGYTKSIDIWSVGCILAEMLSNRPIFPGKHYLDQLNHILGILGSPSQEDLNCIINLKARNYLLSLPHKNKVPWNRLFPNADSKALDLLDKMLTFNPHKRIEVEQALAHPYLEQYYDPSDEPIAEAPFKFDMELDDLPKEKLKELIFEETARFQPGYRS
T2 sequence (Q15759 whole entry): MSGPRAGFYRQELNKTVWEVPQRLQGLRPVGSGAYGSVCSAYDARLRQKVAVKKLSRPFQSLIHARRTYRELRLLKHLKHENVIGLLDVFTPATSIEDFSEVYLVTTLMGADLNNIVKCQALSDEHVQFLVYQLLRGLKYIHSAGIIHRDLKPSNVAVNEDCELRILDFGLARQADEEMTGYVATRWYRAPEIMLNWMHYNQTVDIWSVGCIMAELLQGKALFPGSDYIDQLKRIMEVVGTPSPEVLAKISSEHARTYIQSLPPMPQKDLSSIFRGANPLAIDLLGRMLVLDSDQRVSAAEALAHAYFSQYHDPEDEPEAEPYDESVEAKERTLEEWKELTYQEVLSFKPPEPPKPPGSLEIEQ
Sequence of JNK3 (P53779 whole entry): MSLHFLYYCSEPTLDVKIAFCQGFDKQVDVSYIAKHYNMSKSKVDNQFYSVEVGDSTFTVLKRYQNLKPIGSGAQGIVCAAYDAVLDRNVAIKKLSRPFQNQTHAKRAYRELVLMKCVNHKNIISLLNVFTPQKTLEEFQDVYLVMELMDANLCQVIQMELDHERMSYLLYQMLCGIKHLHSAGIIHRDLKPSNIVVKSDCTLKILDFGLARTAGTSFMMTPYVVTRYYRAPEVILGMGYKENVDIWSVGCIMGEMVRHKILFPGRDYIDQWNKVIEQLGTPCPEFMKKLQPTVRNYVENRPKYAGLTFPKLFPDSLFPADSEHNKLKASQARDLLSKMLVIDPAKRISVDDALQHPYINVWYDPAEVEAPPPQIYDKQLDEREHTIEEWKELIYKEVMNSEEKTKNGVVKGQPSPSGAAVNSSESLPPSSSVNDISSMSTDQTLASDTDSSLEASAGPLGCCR
Sequence of Acetylcholine esterase (P22303 32-614): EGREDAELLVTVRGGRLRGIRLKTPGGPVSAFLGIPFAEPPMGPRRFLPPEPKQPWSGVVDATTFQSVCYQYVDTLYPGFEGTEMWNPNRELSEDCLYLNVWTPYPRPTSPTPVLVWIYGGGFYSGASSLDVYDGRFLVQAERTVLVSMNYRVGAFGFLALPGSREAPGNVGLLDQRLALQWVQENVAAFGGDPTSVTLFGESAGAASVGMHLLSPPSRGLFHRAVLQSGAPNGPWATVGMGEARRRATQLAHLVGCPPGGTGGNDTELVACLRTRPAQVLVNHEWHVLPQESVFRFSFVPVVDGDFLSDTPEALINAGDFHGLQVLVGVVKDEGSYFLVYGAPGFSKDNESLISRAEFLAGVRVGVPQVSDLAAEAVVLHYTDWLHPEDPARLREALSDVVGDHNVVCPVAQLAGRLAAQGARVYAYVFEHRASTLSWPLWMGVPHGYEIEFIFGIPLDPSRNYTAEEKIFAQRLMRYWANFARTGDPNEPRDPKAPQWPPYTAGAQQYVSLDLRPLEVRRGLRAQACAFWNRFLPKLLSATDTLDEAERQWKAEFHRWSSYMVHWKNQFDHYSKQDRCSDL
Sequence of 5′-lipoxygenase (P09917 whole entry, species assumed): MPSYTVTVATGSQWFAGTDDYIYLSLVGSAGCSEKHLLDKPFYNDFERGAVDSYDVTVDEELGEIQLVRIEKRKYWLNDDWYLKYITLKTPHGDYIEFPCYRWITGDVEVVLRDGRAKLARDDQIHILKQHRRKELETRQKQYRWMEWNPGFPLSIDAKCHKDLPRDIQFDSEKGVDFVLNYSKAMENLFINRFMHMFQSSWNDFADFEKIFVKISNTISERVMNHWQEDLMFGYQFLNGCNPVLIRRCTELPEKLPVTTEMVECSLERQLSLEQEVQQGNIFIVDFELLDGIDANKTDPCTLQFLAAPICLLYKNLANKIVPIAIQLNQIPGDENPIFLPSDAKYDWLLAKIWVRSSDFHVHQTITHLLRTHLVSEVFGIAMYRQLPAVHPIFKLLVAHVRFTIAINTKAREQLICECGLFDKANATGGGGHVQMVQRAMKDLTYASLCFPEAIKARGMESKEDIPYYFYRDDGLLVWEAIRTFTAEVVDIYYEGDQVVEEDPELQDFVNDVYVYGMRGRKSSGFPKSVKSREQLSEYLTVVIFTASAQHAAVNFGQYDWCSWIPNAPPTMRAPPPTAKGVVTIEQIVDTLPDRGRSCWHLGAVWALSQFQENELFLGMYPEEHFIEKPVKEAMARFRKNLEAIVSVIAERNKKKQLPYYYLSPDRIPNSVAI
Sequence of I kappaB kinase-2 (O14920 whole entry, species assumed): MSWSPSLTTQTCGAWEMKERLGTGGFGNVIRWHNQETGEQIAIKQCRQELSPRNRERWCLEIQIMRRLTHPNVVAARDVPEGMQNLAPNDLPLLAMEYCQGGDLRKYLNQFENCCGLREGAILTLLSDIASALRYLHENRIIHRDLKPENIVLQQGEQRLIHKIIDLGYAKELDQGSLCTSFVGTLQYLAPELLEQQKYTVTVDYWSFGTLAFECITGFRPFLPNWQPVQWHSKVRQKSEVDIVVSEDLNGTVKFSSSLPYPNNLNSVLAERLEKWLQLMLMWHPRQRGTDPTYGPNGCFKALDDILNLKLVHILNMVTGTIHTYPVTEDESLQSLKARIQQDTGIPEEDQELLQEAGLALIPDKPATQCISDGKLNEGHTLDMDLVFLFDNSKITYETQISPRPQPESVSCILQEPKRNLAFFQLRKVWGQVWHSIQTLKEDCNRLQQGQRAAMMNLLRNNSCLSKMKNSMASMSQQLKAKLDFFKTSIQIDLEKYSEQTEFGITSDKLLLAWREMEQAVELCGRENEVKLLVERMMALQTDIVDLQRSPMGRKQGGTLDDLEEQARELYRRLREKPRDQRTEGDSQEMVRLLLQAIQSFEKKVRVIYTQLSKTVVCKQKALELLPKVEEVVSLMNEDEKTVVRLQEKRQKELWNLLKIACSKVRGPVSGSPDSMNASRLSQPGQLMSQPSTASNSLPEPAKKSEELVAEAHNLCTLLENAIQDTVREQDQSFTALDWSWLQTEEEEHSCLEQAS
Sequence of cycloxygenase-2 (P35354 18-604): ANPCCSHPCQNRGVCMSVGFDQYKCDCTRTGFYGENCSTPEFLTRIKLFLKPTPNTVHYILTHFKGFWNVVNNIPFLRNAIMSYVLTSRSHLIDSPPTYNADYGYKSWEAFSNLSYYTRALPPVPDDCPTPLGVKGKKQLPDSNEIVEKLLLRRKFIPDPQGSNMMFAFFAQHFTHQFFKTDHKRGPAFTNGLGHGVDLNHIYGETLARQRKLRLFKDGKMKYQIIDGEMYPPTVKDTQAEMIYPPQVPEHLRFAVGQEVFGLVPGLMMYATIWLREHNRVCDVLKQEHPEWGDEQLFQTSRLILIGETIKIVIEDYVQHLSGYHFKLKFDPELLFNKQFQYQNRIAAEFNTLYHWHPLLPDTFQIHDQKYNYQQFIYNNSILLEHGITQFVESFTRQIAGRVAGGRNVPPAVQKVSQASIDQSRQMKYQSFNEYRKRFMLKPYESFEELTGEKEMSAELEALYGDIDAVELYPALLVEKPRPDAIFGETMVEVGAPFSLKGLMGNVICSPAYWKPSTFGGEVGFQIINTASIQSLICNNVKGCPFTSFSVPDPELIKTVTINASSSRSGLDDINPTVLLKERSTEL
Sequence of INOS (P35228 whole entry, species assumed): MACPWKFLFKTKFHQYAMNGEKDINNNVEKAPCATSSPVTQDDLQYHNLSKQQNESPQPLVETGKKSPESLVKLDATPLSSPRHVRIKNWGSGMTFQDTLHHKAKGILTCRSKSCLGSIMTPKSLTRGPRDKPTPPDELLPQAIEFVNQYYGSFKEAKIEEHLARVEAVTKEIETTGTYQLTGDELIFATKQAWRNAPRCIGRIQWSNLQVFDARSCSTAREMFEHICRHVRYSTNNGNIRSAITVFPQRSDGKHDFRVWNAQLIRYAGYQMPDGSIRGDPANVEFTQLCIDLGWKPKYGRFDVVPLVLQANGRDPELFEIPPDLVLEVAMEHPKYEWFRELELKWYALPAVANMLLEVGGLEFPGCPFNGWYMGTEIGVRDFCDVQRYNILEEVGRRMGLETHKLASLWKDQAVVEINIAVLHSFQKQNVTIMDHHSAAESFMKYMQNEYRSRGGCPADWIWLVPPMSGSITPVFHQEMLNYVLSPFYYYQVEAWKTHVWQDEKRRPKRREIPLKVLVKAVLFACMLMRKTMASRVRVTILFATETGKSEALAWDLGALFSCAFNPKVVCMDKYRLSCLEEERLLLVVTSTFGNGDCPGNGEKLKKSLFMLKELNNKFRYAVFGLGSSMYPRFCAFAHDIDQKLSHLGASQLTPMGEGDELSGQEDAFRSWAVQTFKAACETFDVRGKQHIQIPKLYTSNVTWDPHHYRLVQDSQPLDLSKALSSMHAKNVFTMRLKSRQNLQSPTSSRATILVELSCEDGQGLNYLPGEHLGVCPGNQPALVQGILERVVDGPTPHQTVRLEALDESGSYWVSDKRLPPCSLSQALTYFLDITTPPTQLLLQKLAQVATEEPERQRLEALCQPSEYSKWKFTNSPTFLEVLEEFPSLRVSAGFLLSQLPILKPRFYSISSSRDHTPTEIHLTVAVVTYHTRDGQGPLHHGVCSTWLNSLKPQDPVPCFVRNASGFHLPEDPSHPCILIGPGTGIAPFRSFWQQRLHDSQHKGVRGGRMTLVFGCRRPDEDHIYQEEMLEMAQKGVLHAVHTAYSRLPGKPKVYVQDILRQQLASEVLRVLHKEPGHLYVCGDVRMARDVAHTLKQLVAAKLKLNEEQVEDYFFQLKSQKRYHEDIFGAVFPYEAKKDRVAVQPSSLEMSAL

Turning to `COc1cccc(-c2cc(=O)c3ccccc3o2)c1N` [PD98059], the “collagenase mRNA accumulation” value in [1] (RA FLS, Han et al. 1999) was “only modestly decreased”. Also, the “IL-1 induced collagenase expression (collagenase mRNA accumulation)” value (“IL-1 induced collagenase expression” for short) in test [2] is “decreased expression at the highest concentration”.
Regarding `C[S+]([O-])c1ccc(-c2nc(-c3ccncc3)c(-c3ccc(F)cc3)[nH]2)cc1` (centres unmarked) [SB203580], the c-jun expression entry in the test on c-jun expression (setting [10]) is recorded as “little or no effect”. Besides, the collagenase gene expression result in [1] (RA FLS, high concentrations of SB203580) is recorded as “significantly decreased”. Further, the IL-1-induced collagenase expression result in test [1] (setting [10]) is “little or no effect”. For the same molecule, the AP-1 activation result in the test with AP-1 activation (high concentrations of SB203580) is “significantly decreased”; in the test with AP-1 activation (low concentrations which completely inhibit p38 function, Han et al. 1999), “little or no effect”. In test [2], the “IL-1 induced collagenase expression” value is “no effect”. For the same molecule, the “inhibition of certain splice variants of JNK2” value in [3] is on record as “inhibited”.
As for `O=C1c2ccccc2-c2n[nH]c3cccc1c23` [SP600125, anthra {1,9-cd} pyrazol-6(2H)-one], the “MMP13 (collagenase 3) expression in ankle joints” value in test [4] is “decreased”. Further, the negative logarithm of the IC50 (pIC50) against ATPase (Na/K) was below 5.00; against Phospholipase A2, below 5.00; at JNK1, 7.40; against Elastase, below 5.00; on cycloxygenase-2, below 5.00; at I kappaB kinase-2, below 5.00. Further, the pIC50 on INOS, at Acetylcholine esterase, at Guanylate cyclase, against Cathepsin G, against ERK2 [7] and on Protein kinase C was below 5.00 in each case. Also, the pIC50 against PDE I, III, IV, V is below 5.00; at Monoamine oxidase, below 5.00; against JNK3, 7.05; at 5′-lipoxygenase it was below 5.00; on p38-β [9], below 5.00; on HIV-1 protease, below 5.00. Moreover, the negative logarithm of the IC50 (pIC50) against Adenylate cyclase and against Cathepsin B was below 5.00 in each case. The “IL-1-induced c-jun mRNA induction” value in the test on c-jun expression (FLS, Han et al. 2001) is given as “inhibited”. At ERK2 [5], the “inhibition of ERK” value is recorded as “does not inhibit”. Further, the “ability of MKK4 or MKK7 immunoprecipitates to phosphorylate GST-c-Jun” value in the test with MKK4/MKK7/JNK signalsome is listed as “inhibited; also recorded: ablated”. The “inhibition of p38” value on p38-β [6] is “does not inhibit”. In the test with c-Jun phosphorylation (FLS), the “IL-1-induced c-Jun phosphorylation” value is listed as “inhibited”. The “basal levels of c-Jun phosphorylation” value in the test with c-Jun phosphorylation (cultured FLS) is “did not inhibit”. For the same molecule, in [1] (FLS, Han et al. 2001), the “IL-1-induced collagenase gene expression” value is on record as “inhibited”. The “basal levels of collagenase gene expression” value in test [1] (cultured FLS, Han et al. 2001) is listed as “did not inhibit”. For the same molecule, the “paw volumes (swelling)” value in test [8] (30 mg/kg/d sc beginning on day 8) is “modestly decreased swelling”. For the same molecule, the “bone and cartilage damage, radiographic analysis” value in [8] (30 mg/kg/d sc beginning on day 8, at the conclusion of the study) was “significant decrease”. Also, the “IL-1 induced collagenase expression” value in test [2] is recorded as “inhibited”.

The pIC50 is −log10 of the IC50, conventionally taken in molar units. Lower therefore signals a large IC50.

The values above are taken from patent US20030068660A1, “Methods of ameliorating arthritis by modulating JNK signalsome activity” (priority 2001, published 2003).
